# Assay: Particle size and polydispersity index (Zetasizer Nano ZS)
# Assay type: physicochemical
# From the text: Nanoparticle compositions may be characterized by a variety of methods. For example, microscopy (e.g., transmission electron microscopy or scanning electron microscopy) may be used to examine the morphology and size distribution of a nanoparticle composition. Dynamic light scattering or potentiometry (e.g., potentiometric titrations) may be used to measure zeta potentials. Dynamic light scattering may also be utilized to determine particle sizes. Instruments such as the Zetasizer Nano ZS (Malvern Instruments Ltd, Malvern, Worcestershire, UK) may also be used to measure multiple characteristics of a nanoparticle composition, such as particle size, polydispersity index, and zeta potential.
# A Zetasizer Nano ZS (Malvern Instruments Ltd, Malvern, Worcestershire, UK) can be used to determine the particle size, the polydispersity index (PDI) and the zeta potential of the nanoparticle compositions in 1×PBS in determining particle size and 15 mM PBS in determining zeta potential.
# [1] = Table 1, DOPE 40:20:38.5:1.5, Luc mRNA
PDI (Table 20-1),PDI [1],Structure (SMILES),also measured
0.210,–,"CCCCCCCOC(=O)CCCCCN(CCO)CCN(CCCCCC(=O)OCCCCCCC)CCCCCC(=O)OCCCCCCC [Compound 20-5, Diheptyl 6,6′-((2-((6-(heptyloxy)-6-oxohexyl)(2 hydroxyethyl)amino)ethyl)azanediyl)dihexanoate]",–
0.150,–,"CCCCCCCCCCCCN(CCO)CCN(CCCCCCCCC)CCCCCCCCC [Compound 20-18, 2-((2-(Dinonylamino)ethyl)(dodecyl)amino)ethan-1-ol]",–
–,0.110,"CCCCCCCCCCCCCCN(CCCCCCCCCCCCCC)CCN(CCCCCCCCCCCCCC)CCN1CCN(CCN(CCCCCCCCC)CCCCCCCCC)CC1 [Compound 30, N^1-(2-(4-(2-(Dinonylamino)ethyl)piperazin-1-yl)ethyl)-N^1,N^2,N^2-tritetradecylethane-1,2-diamine]","Size (nm) (Table 1, lipid:DOPE:Chol:PEG-DMG 40:20:38.5:1.5, Luc mRNA, MC3 standard formulation): 95.0 nm"
0.110,–,"CCCCCCCCCCCCN(CCCCCCCCCCCC)CCN(CCO)CCCCCC(=O)OCCCCC [Compound 20-3, Pentyl 6-((2-(didodecylamino)ethyl)(2-hydroxyethyl)amino)hexanoate]",–
–,–,"CCCCCCCCCCCCN(CCCCCCCCCCCC)CCN(CCCCCCCCCCCC)CCN1CCN(CCN(CCCCCCCC)CCCCCCCC)CC1 [Compound 22, N^1-(2-(4-(2-(Dioctylamino)ethyl)piperazin-1-yl)ethyl)-N^1,N^2,N^2-tridodecylethane-1,2-diamine]",PDI (formulated with hEPO mRNA): 0.130
–,0.044,"CCCCCCCCCCCCN(CCCCCCCCCCCC)CCN(CCCCCCCCCCCC)CCN1CCN(C(=O)CN(CCCCCCCCCCCC)CCCCCCCCCCCC)CC1 [Compound 3, 2-(Didodecylamino)-1-(4-(2-((2-(didodecylamino)ethyl)(dodecyl)amino)ethyl)piperazin-1-yl)ethan-1-one]",–
–,0.100,"CCCCCCCCCCCCN(CCCCCCCCCCCC)CCN1CCN(CCN(CCCCCCCCC)CCN(CCCCCCCCC)CCCCCCCCC)CC1 [Compound 19, N^1-(2-(4-(2-(Didodecylamino)ethyl)piperazin-1-yl)ethyl)-N^1,N^2,N^2-trinonylethane-1,2-diamine]",–
–,0.060,"CCCCC/C=C\C/C=C\CCCCCCCCN(CCCCCCCC/C=C\C/C=C\CCCCC)CCN1CCN(CCN(CCCCCCCCCCCC)CCN(CCCCCCCCCCCC)CCCCCCCCCCCC)CC1 [Compound 29, N^1-(2-(4-(2-(Di((9Z,12Z)-octadeca-9,12-dien-1-yl)amino)ethyl)piperazin-1-yl)ethyl)-N^1,N^2,N^2-tridodecylethane-1,2-diamine]",–
0.160,–,"CCCCCCCCCCCCN(CCO)CCN(CCCCCC(=O)OCCCCC)CCCCCC(=O)OCCCCC [Compound 20-4, Dipentyl 6,6′-((2-(dodecyl(2-hydroxyethyl)amino)ethyl)azanediyl)dihexanoate]",–
–,0.120,"CCCCCCCCCN(CCCCCCCCC)CCN(CCCCCCCCC)CCN1CCN(CCN(CCCCCCCCC)CCCCCCCCC)CC1 [Compound 18, N^1-(2-(4-(2-(Dinonylamino)ethyl)piperazin-1-yl)ethyl)-N^1,N^2,N^2-trinonylethane-1,2-diamine]",–
–,–,"CCCCCCCCCCCCN(CCCCCCCCCCCC)CCN(CCCCCCCCCCCC)CC(=O)O [Compound 20-1, N-(2-(Didodecylamino)ethyl)-N-dodecylglycine]","PDI (Table 20-1, row marked *: formulated with DOPE): 0.078"
–,–,"CCCCCCCC/C=C\CCCCCCCCN(CCCCCCCC/C=C\CCCCCCCC)CCN(CCCCCCCC/C=C\CCCCCCCC)CCN1CCNCC1 [Compound 40, N^1,N^1,N^2-Tri((Z)-octadec-9-en-1-yl)-N^2-(2-(piperazin-1-yl)ethyl)ethane-1,2-diamine]","PDI (Table 1, marked *: lipid:DSPC:Chol:PEG-DMG 50:10:38.5:1.5): 0.210"
0.080,–,"CCCCC/C=C\CCCCCN(CCO)CCN(CCCCCCCCCCCC)CCCCCCCCCCCC [Compound 20-23, (Z)-2-((2-(Didodecylamino)ethyl)(dodec-6-en-1-yl)amino)ethan-1-ol]",–

# Source: patent US12396961B2, “Compounds and compositions for intracellular delivery of agents” (ModernaTX, Inc., priority 2015, dated 2025)
